Read-outs that look alike come from different tables or passages of the source.
Legend:
PC-3 cells = assay: CyQuant cell count, sensitization to doxorubicin; format: cell-based, human; conditions: Homo sapiens
Method: The addition of 100 μM of Ia reduced the IC50 of doxorubicin to 0.1 μM for PC-3 cells and the IC50 of etoposide to 0.04 μM for HeLa cells. Therefore, the treatment with 100 μM of compound Ia causes a sensitization to the cytotoxic effects of doxorubicin of 5 times (PC-3 cells) and a sensitization to the cytotoxic effects of etoposide of 30 times (HeLa cells).

PC-3.Sluc cells tumors = assay: PC-3.Sluc tumor xenografts in Balb/c nu/nu mice, light emission (RLUs); format: in vivo; conditions: doxorubicin alone i.v., 5 mg/Kg, once a week; 56 days
Method: For the purpose of determining if Varubin has an in vivo antitumor activity, its effects in mice having tumors formed from PC-3 cells were analyzed. The experimental tumors were formed by means of the intramuscular inoculation of PC-3.Sluc cells. The latter are PC-3 prostate cells in which they have been integrated by means of transfecting plasmid pRC/CMV-luc, which expresses the firefly (Photinus pyralis) luciferase gene in mammalian cells q. The incubation of the PC-3.luc cells with D-luciferin, a luciferase substrate, produces light, which can be quantified in an absolute manner (number of photons) either by means of a luminometer or by means of detection with a CCD (charge-coupled device) camera. The latter process further allows representing in real time images of the location of the tumor cells in the inoculated animals, as well as the tumor size, since the intensity of the light (number of photons) emitted in the presence of luciferin is directly proportional to the number of PC-3.luc cells.
For these studies, 24 male Balb/c nu/nu mice (Charles River Laboratories) of an age of 6 weeks were used. These animals were kept in a pathogen-free environment at all times, having been kept in the animal housing facility for 1 week after they were received, before the experimental handling. After being anesthetized by means of an intraperitoneal (i.p.) injection of a mixture at equal parts of 6 mg/Kg of droperidol (Roche, Basel, Switzerland) and 12 mg/Kg of midazolam (Rovi S.A, Madrid, Spain), intramuscular (i.m.) injections were performed both in the right leg and in the left leg of each animal of 1×10^6 PC-3.Sluc cells, suspended in 100 μL of fetal bovine serum-free culture medium. The development of tumors in the inoculation sites was allowed for 2 weeks, after which a first measurement of photons emitted was made and a first capture of images with an ORCA-2BT Imaging System instrument (Hammamatsu Photonics) provided with a C4742-98-LWG-MOD model CCD camera (cooled at −80° C.) was done at a resolution of 512×512 pixels. […] Four minutes later, photons were detected and quantified for 5 minutes in the instrument described above. […] The quantification and the analysis of photons were performed with the aid of the image analysis program WASABI (Hamamatsu Photonics). […] For the graphic representations, the quantitative data (RLUs) were standardized, for each tumor, in relation to the RLUs of day 0 of treatment.
The 24 mice, having luminescent tumors in both legs, were included in 4 experimental groups: (1) Control group, in which an intravenous (i.v.) injection of 100 μL of phosphate buffered saline pH 7.4 (PBS) and 50 μL of intratumoral (i.t.) PBS was performed. […] The light emission of the tumors was analyzed throughout 56 days from the start of the treatment.

HeLa cells = assay: CyQuant cell count, sensitization to etoposide; conditions: Homo sapiens, HeLa, 24 h, read-out: IC50 for etoposide

SMILES	IC50 (PC-3 cells; 72 hours of treatment, doxorubicin alone, read-out: IC50 for doxorubicin)	IC50 (PC-3 cells; plus 100 μM of Ia, read-out: IC50 of doxorubicin with addition of Ia)	tumor growth (RLUs) (PC-3.Sluc cells tumors)	IC50 (HeLa cells)
COc1cccc2c1C(=O)c1c(O)c3c(c(O)c1C2=O)C[C@@](O)(C(=O)CO)C[C@@H]3O[C@H]1C[C@H](N)[C@H](O)[C@H](C)O1 [doxorubicin]	~500 nM	100 nM	hardly experienced growth	–
COc1cc([C@@H]2c3cc4c(cc3[C@@H](O[C@@H]3O[C@@H]5CO[C@@H](C)O[C@H]5[C@H](O)[C@H]3O)[C@H]3COC(=O)[C@H]23)OCO4)cc(OC)c1O [etoposide, reference compound]	–	–	–	~1250 nM
